# From patent US8815590B2, “Composition and method for differentiation of human embryonic stem cells” (Stem Cells for Safer Medicines Limited, priority 2009, dated 2014)
# B1: Activin A: member of the TGFβ superfamily which binds to the same receptors as Nodal, used to mimic Nodal activity in vitro (protein, UniProt P08476 311-426, looked up)
# Inhibin beta A chain: GLECDGKVNICCKKQFFVSFKDIGWNDWIIAPSGYHANYCEGECPSHIAGTSGSSLSFHSTVINHYRMRGHSPFANLKSCCVPTKLRPMSMLYYDDGQNIIKKDIQNMIVEECGCS
# modifications: Inhibin beta A chain homodimer
# Assays:
# [1] = test system: Human ESCs [SHEF3]; assay: Colony morphology, RT-PCR and Western blot of OCT4/NANOG in treated human ESCs; assay type: cell-based
# Protocol: (§1) Human ESCs [SHEF3] were treated with the indicated concentrations of BIO or compound 1M or left untreated as a control and cultured for 7 days. (A) Images show typical colonies formed following the indicated treatments. The scale bars represent 1 mm. (B) Histogram plots of ESCs analysed by flow cytometry following immunostaining with antibodies against the pluripotency markers Tra-1-60 or SSEA4. (C) RNA was extracted from the cells and RT-PCR analyses performed using primers specific to the pluripotency genes OCT4 and NANOG and to the house-keeping gene β-ACTIN. (D) Western blot analysis was performed on protein extracted from the cells and immunoblotted with antibodies specific to Oct4. Blots were stripped and reprobed with anti-Gapdh antibodies to assess equal loading. (E) Compound 1O also induces differentiation of human ESCs. SHEF3 cells were treated with the indicated concentration of 1O for 7 days. Images show typical colony morphology. (F) Histogram plots of ESCs analysed by flow cytometry following staining with Tra-1-60 and SSEA4 antibodies. Analysis of percent positive cells and mean fluorescent intensity are indicated on the plots. (G) RT PCR analysis for the expression of OCT4 and NANOG. Bands for each of the genes were from the same gel with intervening samples removed. (H) Western blot analysis of OCT4 protein expression. Proteins bands were from the same immunoblot with intervening samples removed.
# (§2) SHEF1 and SHEF3 human ESCs were obtained from the UKSCB and cultured as outlined in their protocols. Briefly, ESCs were maintained on mitomycin C-inactivated mouse embryonic fibroblast (MEF) feeder layers in KnockOut Dulbecco's modified Eagle's medium (KO DMEM) (Invitrogen) supplemented with 20% (vol/vol) KO serum replacement (KOSR; Invitrogen), 1 mM non-essential amino acids (NEAA; Invitrogen), 1 mM glutamine (Invitrogen), 0.1 mM 2-mercaptoethanol (BioRad), penicillin/streptomycin, and 4 ng/ml recombinant human FGF2 (Peprotech). Cultures were passage using 1 mg/ml collagenase at a ratio of 1:8 to 1:12 every 7 days. Cultures were transferred to a feeder-free, chemically defined culture system on ESC-qualified Matrigel® (BD) coated plates in mTeSR1® (Stem Cell Technologies) media according to Stem Cell Technologies' protocol.
# (§3) Total RNA was isolated and purified using TRIzol Reagent (Invitrogen), following the manufacturer's instructions. All RNA samples were treated with DNase I (Ambion) before cDNA synthesis to eliminate any contaminating genomic DNA. RNA (1 μg) was reverse transcribed into cDNA using Oligo(dT)15 (Promega) and SuperScript II (Invitrogen). Gene-specific PCR was carried out using primers and annealing temperatures outlined in Table 2.
# Cell lysates (20 μg) were prepared, separated by SDS-PAGE and transferred to nitrocellulose as described previously (Welham et al., 1994). Immunoblotting was carried out using primary antibodies at the following dilutions: 1:5,000 anti-Oct4 (Santa Cruz Biotechnology; sc-9081); 1:2000 anti-GAPDH (sc-20357); 1:10,000 anti-phospho (Ser33/37/Thr41) β-catenin (Cell signalling Technology; CST 9561); 1:1000 anti-β-catenin (CST 9562). Anti-rabbit antibodies conjugated to horseradish peroxidise (DAKO) were used at 1:10,000 and blots were developed using ECL Advance (GE Healthcare) or ChemiGlow (Alpha Innotech) according to manufacturer's directions. Images were captured and analysed using the ImageQuant RT ECL system (GE Healthcare). Blots were stripped and reprobed as described previously (Welham et al., 1994).
# [2] = test system: Human ESCs [SHEF3]; assay: Flow cytometry of pluripotency surface markers Tra-1-60 and SSEA4 in treated human ESCs; assay type: cell-based
# Protocol: as §1, with “(A)” for “Human ESCs [SHEF3] were treated with the indicated concentrations of BIO or compound 1M or left untreated as a control and cultured for 7 days. (A)”, “(E) Compound 1O also induces differentiation of human ESCs.” left out
# as §2
# ESCs were trypsinised (0.05% Trypsin-EDTA) for 10 minutes at 37° C. and resuspended in PBS containing 2% (v/v) FBS (FBS/PBS). […] Cells were washed and stained with secondary fluorescein isothiocyanate (FITC)-conjugated antibodies (SIGMA) for a further 30 minutes, if required. Flow cytometry was performed using a FACSCanto cytometer (Becton Dickenson) and the data were analysed with FACSDiva software. Dead cells were excluded for analyses based on forward and side scatter parameters.
# [3] = test system: Human ESCs [SHEF3]; assay: Differentiation towards definitive endoderm: immunostaining and RT-PCR of endodermal markers; assay type: cell-based; settings: 2 μM, feeder-free on Matrigel in mTeSR1, up to 7 days
# Protocol: Human ESCs [SHEF3] were maintained feeder-free on Matrigel® in chemically defined mTeSR1® media and treated with 2 μM 1M for the days indicated. (A) Expression of the endodermal markers FoxA2, Sox17 and HNF4α were analysed by immunofluorescence. Treatment with compound 1M led to expression of all markers after 7 days treatment. Scale bar represents 50 μm. (B) ESCs were harvested on day 7 following treatment with 1M for the indicated days. RNA was extracted and RT-PCR analyses performed using primers selective for the genes indicated. […] (C) BIO induces differentiation towards the DE. SHEF3 ESCs were treated with 2 μM BIO for the times indicated and immunostained with antibodies towards the endodermal markers FOXA2, SOX17 and HNF4α. (D) Compound 1L also induces differentiation towards the DE. SHEF1 ESCs were treated with 2 μM 1L for the times indicated and immunostained with antibodies towards the endodermal markers FOXA2 and HNF4α.
# ESCs were cultured feeder-free on Matrigel®-coated plates in mTeSR1® media, supplemented with 2 μM compound 1M for 7 days with the media being refreshed every-other day. Definitive endoderm cultures were passaged with collagenase (1 mg/ml) and plated at a ratio of 1:10 on Matrigel® in KO DMEM supplemented with glutamine, penicillin/streptomycin, NEAA, 2% (v/v) KOSR, 10 ng/ml HGF (Peprotech) and 10 ng/ml FGF4 and cultured for a further 7 days with the media being refreshed every-other day. To allow for maturation of the HLCs, 10 ng/ml oncostatin M (Peprotech) and 10^−7 dexamethasone (SIGMA) were added to the above media and the cells were cultured for an additional 7 days with fresh media every-other day.
# as §3
# ESCs were cultured on Matrigel®-coated lummox (Greiner Bio One) trays and fixed with 4% paraformaldehyde (PFA) for 20 minutes at room temperature. Cells were permeabilised in PBST (with 0.1% Triton X-100) and blocked in 10% blocking reagent (Roche) before incubating with primary antibodies in 2% blocking reagent overnight at 4° C. After washing in PBS, cells were incubated with FITC-conjugated secondary antibodies (Vector Labs) for 3 hours at room temperature. After further washing, the cells were stained with 4,6-diamidino-2-phenylindole (DAPI) (SIGMA), washed again and mounted in MOWIOL. […]
# [4] = test system: ESCs [SHEF1]; assay: RT-PCR of Activin/Nodal pathway and differentiation marker genes; assay type: cell-based, human; settings: 10 μM with 2 μM 1M
# Protocol: (§4) (A) RNA was extracted from ESCs [SHEF1] cultured for 7 days in the presence of 2 μM 1M for the days indicated. RT-PCR analyses were performed using primers selective for the genes indicated. (B) ESCs [SHEF1] were treated with 2 μM 1M alone or in combination with 10 μM SB43125 (S) for the days indicated and RT-PCR performed on the extracted RNA. (C) ESCs [SHEF3] were treated with 1M alone or in combination with 100 ng/ml Activin A (A) for the days indicated and RT-PCR performed. (D). ESCs [SHEF1] were treated with 2 μM 1M, or 100 ng/ml ActivinA (A) alone or in combination with 1M for 5 days. Expression of the endoderm markers FoxA2 and HNF4α was analysed by immunofluorescence. The number of percent positive cells averaged from 3 fields of view +/−SD are indicated. Scale bar represents 50 μm. (E) ESCs [SHEF1] were treated with 2 μM 1M, or 100 ng/ml ActivinA (A) alone or in combination with 1M for 5 days. Expression of the DE marker CXCR4 was alaysed by flow cytometry.
# as §3
# [5] = test system: ESCs [SHEF1]; assay: Immunofluorescence of endoderm markers FoxA2 and HNF4α, percent positive cells; assay type: cell-based, human; settings: 5 days
# Protocol: as §4
# ESCs were cultured on Matrigel®-coated lummox (Greiner Bio One) trays and fixed with 4% paraformaldehyde (PFA) for 20 minutes at room temperature. Cells were permeabilised in PBST (with 0.1% Triton X-100) and blocked in 10% blocking reagent (Roche) before incubating with primary antibodies in 2% blocking reagent overnight at 4° C. After washing in PBS, cells were incubated with FITC-conjugated secondary antibodies (Vector Labs) for 3 hours at room temperature. After further washing, the cells were stained with 4,6-diamidino-2-phenylindole (DAPI) (SIGMA), washed again and mounted in MOWIOL. The following antibodies and dilutions were used: goat-anti-FoxA2 (1:100, R&D. Systems), mouse anti-Sox17 (1:50, R&D Systems), rabbit anti-HNF4α (1:100, Santa Cruz), rabbit anti-AFP (1:100, DAKO), rabbit anti-TTR (1:100, DAKO). Images were captured on a Zeiss 510 Meta confocal microscope using a 40× objective.
# [6] = test system: ESCs; assay: RT-PCR of Activin/Nodal pathway and differentiation marker genes; assay type: cell-based, human; settings: 100 ng/ml Activin A with 1M, 7 days, SHEF3
# Protocol: as §4, §3
# [7] = test system: ESCs [SHEF1]; assay: Flow cytometry of the DE marker CXCR4; assay type: cell-based, human; settings: 2 μM 1M, 100 ng/ml Activin A, alone or in combination, 5 days
# Protocol: as §4
# ESCs were trypsinised (0.05% Trypsin-EDTA) for 10 minutes at 37° C. and resuspended in PBS containing 2% (v/v) FBS (FBS/PBS). […] Flow cytometry was performed using a FACSCanto cytometer (Becton Dickenson) and the data were analysed with FACSDiva software. […]
# [8] = MEF culture, concentration 0.5, 7 days
# [9] = MEF culture, concentration 2, 7 days
# [10] = mTeSR1, concentration 0.5, 7 days
# [11] = mTeSR1, concentration 2, 7 days
# [12] = 100 ng/ml Activin A with 2 μM 1M
molecule,measurement,setting,value
O=C1NC(=O)C2=C1c1cn(c3ccccc13)CCCCC(O)CCCCn1cc2c2ccccc21 [1O],OCT4 and NANOG gene expression (RT-PCR),[1]; 7 days treatment,loss of OCT4 and NANOG gene expression
same,Oct4 protein expression (Western blot),[1]; 7 days treatment,loss of OCT4 protein expression
same,Proliferation and differentiation of human ESCs (colony morphology),"[1]; 7 days, on MEFs in KO DMEM or on Matrigel in mTeSR1, 1M at 2 μM",induced similar differentiation
same,Expression of pluripotency markers Tra-1-60 and SSEA4 by flow cytometry (in words),[2]; 7 days treatment,decreased expression of Tra-1-60 and SSEA4
O=C1NC(=O)C2=C1c1cn(c3ccccc13)CCOCCOCCOCCn1cc2c2ccccc21 [1L],"Differentiation towards the DE (immunostaining FOXA2, SOX17, HNF4α)",[3],induced differentiation towards the DE
"O=C1Nc2cc(Br)ccc2/C1=C1/Nc2ccccc2/C1=N\O [BIO, reference compound]","Differentiation towards the DE (immunostaining FOXA2, SOX17, HNF4α)",[3],induced differentiation towards the DE
same,Tra1-60 % pos,"[2]; MEF culture, concentration 0.5 (unit not given), 7 days",82.2%
same,SSEA4 % pos,[2]; [8],91.3%
same,SSEA4 mean (mean fluorescence intensity),[2]; [8],6002
same,Tra1-60 mean (mean fluorescence intensity),[2]; [8],9497
same,Tra1-60 % pos,"[2]; MEF culture, concentration 2 (unit not given), 7 days",75.1%
same,SSEA4 % pos,[2]; [9],83.3%
same,SSEA4 mean (mean fluorescence intensity),[2]; [9],4006
same,Tra1-60 mean (mean fluorescence intensity),[2]; [9],7441
same,Tra1-60 % pos,"[2]; mTeSR1 (feeder-free, Matrigel), concentration 0.5, 7 days",73.7%
same,Tra1-60 % pos,"[2]; mTeSR1 (feeder-free, Matrigel), concentration 2, 7 days",40.5%
same,SSEA4 % pos,[2]; [10],69.2%
same,SSEA4 mean (mean fluorescence intensity),[2]; [10],5871
same,Tra1-60 mean (mean fluorescence intensity),[2]; [10],8194
same,SSEA4 % pos,[2]; [11],72.5%
same,SSEA4 mean (mean fluorescence intensity),[2]; [11],1410
same,Tra1-60 mean (mean fluorescence intensity),[2]; [11],890
"NC(=O)c1ccc(-c2nc(-c3ccccn3)c(-c3ccc4c(c3)OCO4)[nH]2)cc1 [SB43125, reference compound]",Effect on 1M-induced GSC and FOXA2 expression,[4],dramatically reduced
same,Inhibition of 1M-induced NODAL expression,[4],only partially inhibited
B1,Effect of Activin A on generation of 1M-induced HNF4α expressing cells,[5]; [12],inhibit generation of 1M-induced HNF4α expressing cells
same,Effect of addition of Activin A on 1M-induced FoxA2 expression,[5]; [12],did not further enhance
same,FOXA2 expressing cells in the entire population,[5]; 2 μM 1M or 100 ng/ml Activin A,8%
same,HNF4α-expressing cells,[5]; 2 μM 1M or 100 ng/ml Activin A,3%
same,1M-induced expression of AFP in the presence of Activin A,[6],lost
same,CXCR4 expression by flow cytometry,[7],26.5%
